In patent US11713309B2, “Solid forms of Cerdulatinib” (Alexion Pharmaceuticals, Inc., priority 2018, dated 2023):
≈ marks a conversion by molar mass, not a printed value. One block for each molecule: values may come before it.

What was measured:
Assay type in all cases: physicochemical
[1] = Kinetic solubility in FeSSIF; details: for Solubility (mg/mL) 1 h / Solubility (mg/mL) 2 h / Solubility (mg/mL) 4 h / Solubility (mg/mL) 24 h: 37° C.; for Solubility (mg/mL) 1 h: drug loading ~10 mg/mL as freebase; for pH 1 h / pH 2 h / pH 4 h / pH 24 h: supernatant
Protocol: (§1) Kinetic solubility testing was conducted as follows: About 40-55 mg material was weighed into a 5-mL EP pipe. 4 mL of water/bio-relevant media (SGF, FaSSIF, or FeSSIF) was added into the corresponding sample pipe (drug loading: ˜10 mg/mL calculated as freebase). The pipes were capped tightly and the material was verified to be in contact with the media. The sample vials were placed on a roller and start rolling at 37° C. (rate: 25 r/min). Samples were taken at 1, 2, 4, 24 h. For each time point, 1.0 mL of suspension was transferred into a 2-mL centrifuge tube and the samples were centrifuged. The supernatant was filtered via 0.45 μm PTFE membrane and solubility and pH were measured. An XRPD test on residual solids was conducted.

[2] = Kinetic solubility in FaSSIF; details: for Solubility (mg/mL) 1 h / Solubility (mg/mL) 2 h / Solubility (mg/mL) 4 h / Solubility (mg/mL) 24 h / Final Form: FaSSIF; for Solubility (mg/mL) 1 h / Solubility (mg/mL) 2 h / Solubility (mg/mL) 4 h / Solubility (mg/mL) 24 h: 37° C.; for Solubility (mg/mL) 1 h: drug loading ~10 mg/mL as freebase; for Final Form: XRPD of residual solids; for Solubility (mg/mL) 1 h / Final Form / pH 1 h: 1 h; for Solubility (mg/mL) 2 h / Final Form / pH 2 h: 2 h; for Solubility (mg/mL) 4 h / Final Form / pH 4 h: 4 h; for Solubility (mg/mL) 24 h / Final Form / pH 24 h: 24 h; for pH 1 h / pH 2 h / pH 4 h / pH 24 h: supernatant, FaSSIF (native pH 6.5)
Protocol: as §1

[3] = Kinetic solubility in SGF; details: for Solubility (mg/mL) 1 h / Solubility (mg/mL) 2 h / Solubility (mg/mL) 4 h / Solubility (mg/mL) 24 h: 37° C.; for Solubility (mg/mL) 1 h: drug loading ~10 mg/mL as freebase; for pH 1 h / pH 2 h / pH 4 h / pH 24 h: supernatant, SGF (native pH 1.8)
Protocol: as §1

[4] = Kinetic solubility in water; details: 37° C.; for pH of supernatant: water (native pH 7.6)
Protocol: as §1

[5] = 1 h, listed as Naphthalene disulfonate Type A
[6] = 2 h, listed as Naphthalene disulfonate Type A
[7] = 4 h, listed as Naphthalene disulfonate Type A
[8] = 24 h, listed as Naphthalene disulfonate Type A
[9] = listed as Naphthalene disulfonate Type A

- Solubility (mg/mL) 1 h ([1]; 1 h, listed as Esylate Type A): 0.060 mg/mL (≈ 135 µM)
- Solubility (mg/mL) 2 h ([1]; 2 h, listed as Esylate Type A): 0.027 mg/mL (≈ 60.6 µM)
- Solubility (mg/mL) 4 h ([1]; 4 h, listed as Esylate Type A): 0.014 mg/mL (≈ 31.4 µM)
- Solubility (mg/mL) 24 h ([1]; 24 h, listed as Esylate Type A): 0.011 mg/mL (≈ 24.7 µM)
- Final Form 2 h, 4 h, 24 h ([1]; XRPD of residual solids, 2 h, 4 h, 24 h): Freebase Form II
- pH 1 h ([1]; 1 h, listed as Esylate Type A): 4.8
- pH 2 h ([1]; 2 h, listed as Esylate Type A): 4.7
- pH 4 h ([1]; 4 h, listed as Esylate Type A): 4.7
- pH 24 h ([1]; 24 h, listed as Esylate Type A): 4.4
- Solubility (mg/mL) 1 h ([2]; listed as Esylate Type A): 0.015 mg/mL (≈ 33.7 µM)
- Solubility (mg/mL) 2 h ([2]; listed as Esylate Type A): 0.012 mg/mL (≈ 26.9 µM)
- Solubility (mg/mL) 4 h ([2]; listed as Esylate Type A): 0.024 mg/mL (≈ 53.9 µM)
- Solubility (mg/mL) 24 h ([2]; listed as Esylate Type A): 0.0040 mg/mL (≈ 8.98 µM)
- Final Form [2]: Freebase Form II
- pH 1 h ([2]; listed as Esylate Type A): 5.2
- pH 2 h ([2]; listed as Esylate Type A): 5.0
- pH 4 h ([2]; listed as Esylate Type A): 4.3
- pH 24 h ([2]; listed as Esylate Type A): 3.8
- Solubility (mg/mL) 1 h ([3]; SGF, 1 h, listed as Esylate Type A): 0.092 mg/mL (≈ 206 µM)
- Solubility (mg/mL) 2 h ([3]; SGF, 2 h, listed as Esylate Type A): 0.10 mg/mL (≈ 224 µM)
- Solubility (mg/mL) 4 h ([3]; SGF, 4 h, listed as Esylate Type A): 0.087 mg/mL (≈ 195 µM)
- Solubility (mg/mL) 24 h ([3]; SGF, 24 h, listed as Esylate Type A): 0.083 mg/mL (≈ 186 µM)
- Final Form ([3]; XRPD of residual solids, SGF, 1 h, 2 h, 4 h, 24 h): HC1 salt Form I
- pH 1 h ([3]; 1 h, listed as Esylate Type A): 2.1
- pH 2 h ([3]; 2 h, listed as Esylate Type A): 1.9
- pH 4 h ([3]; 4 h, listed as Esylate Type A): 2.1
- pH 24 h ([3]; 24 h, listed as Esylate Type A): 1.9
- pH of supernatant ([4]; 1 h, listed as Esylate Type A): 2.3
- pH of supernatant ([4]; 2 h, listed as Esylate Type A): 2.0
- pH of supernatant ([4]; 4 h, listed as Esylate Type A): 2.2
- pH of supernatant ([4]; 24 h, listed as Esylate Type A): 2.1
- Final Form of residual solids (XRPD) ([4]; water, 1 h, 2 h, 4 h, 24 h, listed as Esylate Type A): Freebase Form II
- Kinetic solubility ([4]; water, 1 h, listed as Esylate Type A): 1.7 mg/mL
- Kinetic solubility ([4]; water, 2 h, listed as Esylate Type A): 1.5 mg/mL
- Kinetic solubility ([4]; water, 4 h, listed as Esylate Type A): 1.4 mg/mL
- Kinetic solubility ([4]; water, 24 h, listed as Esylate Type A): 1.3 mg/mL
SMILES: CCS(=O)(=O)N1CCN(c2ccc(Nc3ncc(C(N)=O)c(NC4CC4)n3)cc2)CC1 [Compound I esylate Type A, 4-(cyclopropylamino)-2-(4-(4-(ethylsulfonyl)piperazin-1-yl)phenylamino)pyrimidine-5-carboxamide]

- Solubility (mg/mL) 1 h [1, 5]: 0.0088 mg/mL (≈ 19.8 µM)
- Solubility (mg/mL) 2 h [1, 6]: 0.0079 mg/mL (≈ 17.7 µM)
- Solubility (mg/mL) 4 h [1, 7]: 0.0069 mg/mL (≈ 15.5 µM)
- Solubility (mg/mL) 24 h [1, 8]: 0.0059 mg/mL (≈ 13.2 µM)
- Final Form ([1]; XRPD of residual solids, 1 h, 2 h, 4 h, 24 h, listed as Naphthalene disulfonate Type A): New form X
- pH 1 h [1, 5]: 4.6
- pH 2 h [1, 6]: 4.6
- pH 4 h [1, 7]: 4.6
- pH 24 h [1, 8]: 4.6
- Solubility (mg/mL) 1 h [2, 9]: 0.0035 mg/mL (≈ 7.86 µM)
- Solubility (mg/mL) 2 h [2, 9]: 0.0037 mg/mL (≈ 8.3 µM)
- Solubility (mg/mL) 4 h [2, 9]: 0.0030 mg/mL (≈ 6.73 µM)
- Solubility (mg/mL) 24 h [2, 9]: 0.0027 mg/mL (≈ 6.06 µM)
- Final Form [2, 9]: New form X
- pH 1 h [2, 9]: 2.8
- pH 2 h [2, 9]: 2.7
- pH 4 h [2, 9]: 2.6
- pH 24 h [2, 9]: 2.5
- Solubility (mg/mL) 1 h ([3]; SGF, 1 h, listed as Naphthalene disulfonate Type A): 0.019 mg/mL (≈ 42.6 µM)
- Solubility (mg/mL) 2 h ([3]; SGF, 2 h, listed as Naphthalene disulfonate Type A): 0.016 mg/mL (≈ 35.9 µM)
- Solubility (mg/mL) 4 h ([3]; SGF, 4 h, listed as Naphthalene disulfonate Type A): 0.018 mg/mL (≈ 40.4 µM)
- Solubility (mg/mL) 24 h ([3]; SGF, 24 h, listed as Naphthalene disulfonate Type A): 0.016 mg/mL (≈ 35.9 µM)
- pH 1 h [3, 5]: 2.0
- pH 2 h [3, 6]: 1.9
- pH 4 h [3, 7]: 2.0
- pH 24 h [3, 8]: 1.8
- pH of supernatant [4, 5]: 2.8
- pH of supernatant [4, 6]: 2.6
- pH of supernatant [4, 7]: 2.5
- pH of supernatant [4, 8]: 2.4
- Kinetic solubility ([4]; water, 1 h, listed as Naphthalene disulfonate Type A): 0.0014 mg/mL
- Kinetic solubility ([4]; water, 2 h, listed as Naphthalene disulfonate Type A): 0.0025 mg/mL
- Kinetic solubility ([4]; water, 4 h, listed as Naphthalene disulfonate Type A): 0.0015 mg/mL
- Kinetic solubility ([4]; water, 24 h, listed as Naphthalene disulfonate Type A): 0.0016 mg/mL
SMILES: CCS(=O)(=O)N1CCN(c2ccc(Nc3ncc(C(N)=O)c(NC4CC4)n3)cc2)CC1 [4-(cyclopropylamino)-2-(4-(4-(ethylsulfonyl)piperazin-1-yl)phenylamino)pyrimidine-5-carboxamide]
